Biological target: HER2 (Homo sapiens, UniProt P04626)
Sequence (P04626 23-1255): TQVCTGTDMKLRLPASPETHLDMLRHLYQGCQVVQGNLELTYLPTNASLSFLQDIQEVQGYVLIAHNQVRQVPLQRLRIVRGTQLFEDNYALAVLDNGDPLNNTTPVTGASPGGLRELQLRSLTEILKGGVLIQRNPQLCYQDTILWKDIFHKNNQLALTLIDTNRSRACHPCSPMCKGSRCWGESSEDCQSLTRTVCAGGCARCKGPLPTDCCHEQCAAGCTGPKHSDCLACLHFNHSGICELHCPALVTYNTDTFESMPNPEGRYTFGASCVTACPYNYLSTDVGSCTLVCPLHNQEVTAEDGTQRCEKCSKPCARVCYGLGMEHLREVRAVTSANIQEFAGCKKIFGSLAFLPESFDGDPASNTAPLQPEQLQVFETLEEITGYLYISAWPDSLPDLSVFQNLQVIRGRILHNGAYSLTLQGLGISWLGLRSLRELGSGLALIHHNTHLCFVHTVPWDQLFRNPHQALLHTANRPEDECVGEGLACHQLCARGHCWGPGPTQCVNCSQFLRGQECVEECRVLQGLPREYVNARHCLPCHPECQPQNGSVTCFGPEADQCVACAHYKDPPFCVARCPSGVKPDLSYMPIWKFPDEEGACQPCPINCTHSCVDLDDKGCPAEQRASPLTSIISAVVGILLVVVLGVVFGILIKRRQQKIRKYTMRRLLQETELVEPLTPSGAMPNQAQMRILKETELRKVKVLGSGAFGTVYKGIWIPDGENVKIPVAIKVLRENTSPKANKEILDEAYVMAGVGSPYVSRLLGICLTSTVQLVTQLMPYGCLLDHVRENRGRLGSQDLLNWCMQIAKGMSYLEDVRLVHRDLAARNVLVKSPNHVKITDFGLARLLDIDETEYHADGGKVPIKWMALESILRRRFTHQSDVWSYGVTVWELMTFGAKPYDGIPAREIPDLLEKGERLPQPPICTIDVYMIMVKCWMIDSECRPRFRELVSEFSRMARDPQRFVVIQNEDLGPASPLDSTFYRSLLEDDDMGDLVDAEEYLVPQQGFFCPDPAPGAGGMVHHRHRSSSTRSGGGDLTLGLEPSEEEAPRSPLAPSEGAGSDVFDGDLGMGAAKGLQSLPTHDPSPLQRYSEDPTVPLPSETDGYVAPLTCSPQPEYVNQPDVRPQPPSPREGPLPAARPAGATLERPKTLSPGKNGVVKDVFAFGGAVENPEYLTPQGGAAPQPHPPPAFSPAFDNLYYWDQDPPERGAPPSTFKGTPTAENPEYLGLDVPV
Assay: Suppression of receptor tyrosine-phosphorylation in human breast cancer cells (intracellular HER2 phosphorylation, MCF-7, heregulin stimulation)
Format: cell-based
Parameters: endogenous in cells; host or cells: MCF-7
Details: MCF-7 cells; test compound 2 hours, then heregulin 0.8 μg/ml 5 minutes; read-out: Intracellular HER2 phosphorylation inhibition MCF-7 (IC50:μM)
Procedure: Cell suspension of Human breast cancer cell line MCF-7 (500 μl), suspended at 300,000 cells/0.5 mL, was placed in a 24-well plate and cultured at 37° C. in a 5% carbon dioxide gas incubator. On the following day, 250 μl of a solution of 4-fold serially diluted test compound was added. After 2 hours, 250 μl of a heregulin solution, prepared to a final concentration of 0.8 μg/ml, was added. After 5 minutes, a buffer solution for lysis of extract solution was added to stop the reaction and to extract and yield a cell-lysate protein. After this cell-lysate protein was subjected to SDS-polyacrylamide gel electrophoresis to separate the protein, the protein in the gel was blotted onto a nylon filter. This filter was reacted with an anti-phosphotyrosine specific antibody; the portion containing phosphotyrosine on the filter was luminated using the ECL method to photosensitize an X-ray film. The amount of the film photosensitization was determined using an image analyzer.
Molecule `Cc1cccc(/C=C/c2nc(COc3ccc(CCCCc4c[nH]c(CC(O)CO)n4)cc3)co2)c1` (stereo not drawn) [Compound B22, 3-(4-{4-[4-({2-[(E)-2-(3-methylphenyl)ethenyl]-1,3-oxazol-4-yl}methoxy)phenyl]butyl}-1H-imidazol-2-yl)-1,2-propanediol] has an IC50 of 1.9 µM.

Test system: human breast cancer cell line BT-474
Assay: Inhibitory action on breast cancer cell line BT-474 proliferation in vitro (SRB)
Format: cell-based
Details: heregulin 0.04 μg/ml, cultured 5 days, read-out: Inhibition of cell proliferation BT-474 (IC50:μM)
Procedure: Cell suspension of human breast cancer cell line BT-474 (100 μl) suspended at 1,000 cells/100 μl), was placed in a 96-well microwell plate and cultured at 37° C. in a 5% carbon dioxide gas incubator. On the following day, 100 μl of a solution of each test compound, previously diluted 2-fold with a heregulin solution prepared to a final concentration of 0.04 μg/ml, was added, and the cells were cultured for 5 days. After the culture medium containing the test compound was removed, the cells were washed and fixed with 5% trichloroacetic acid, after which a 0.4% (w/v) SRB solution (dissolved in 1% acetic acid) was added to fix and stain the cells (Skehan et al., Journal of the National Cancer Institute, Vol. 82, pp. 1107-1112, 1990). After the pigment solution was removed and the plate was washed with a 1% acetic acid solution, 100 μl of an extractant (10 mM Tris buffer solution) was added to extract and dissolve the pigment; absorbance was measured at an absorption wavelength of 550 nm to quantify the amount of cells as protein content. Taking as 100% the absorbance for the control group, which received no test compound solution, the ratio of the absorbance for each treatment group was determined, and the compound concentration required to achieve 50% suppression of the residual cell content relative to the control (IC50 value) was calculated.
For `Cc1cccc(/C=C/c2nc(COc3ccc(CCCCc4c[nH]c(CC(O)CO)n4)cc3)co2)c1` (stereo not drawn) [Compound B22, 3-(4-{4-[4-({2-[(E)-2-(3-methylphenyl)ethenyl]-1,3-oxazol-4-yl}methoxy)phenyl]butyl}-1H-imidazol-2-yl)-1,2-propanediol], the IC50 was under 0.05 µM.

Test system: not given
Assay: not given
Details: not given
With `FC(F)(F)c1ccc(/C=C/c2nc(COc3ccc(CCCn4ccnn4)cc3)co2)cc1` [Compound B5, 1-(3-{4-[(2-((E)-2-[4-(trifluoromethyl)phenyl]ethenyl)-1,3-oxazol-4-yl)methoxy]phenyl}propyl)-1H-1,2,3-triazole] the melting point was 157 to 158 °C. `FC(F)(F)c1ccc(/C=C/c2nc(COc3cccc(CCCn4ccnn4)c3)co2)cc1` [Compound B6, 1-(3-{3-[(2-{(E)-2-[4-(trifluoromethyl)phenyl]ethenyl}-1,3-oxazol-4-yl)methoxy]phenyl}propyl)-1H-1,2,3-triazole] gave a melting point of 115 to 116 °C. `Fc1ccc(/C=C/c2nc(COc3ccc(CCCCn4ccnn4)cc3)co2)c(F)c1` [Compound B7, 1-{4-[4-({2-[(E)-2-(2,4-difluorophenyl)ethenyl]-1,3-oxazol-4-yl}methoxy)phenyl]butyl}-1H-1,2,3-triazole] gave a melting point of 115 to 117 °C. In the case of `Fc1ccc(/C=C/c2nc(COc3cccc(CCCn4ccnn4)c3)co2)c(F)c1` [Compound B8, 1-{3-[3-({2-[(E)-2-(2,4-difluorophenyl)ethenyl]-1,3-oxazol-4-yl}methoxy)phenyl]propyl}-1H-1,2,3-triazole], the melting point is reported as 89 to 90 °C. `Cc1ccc(/C=C/c2nc(COc3ccc(CCCCn4ccnc4CCO)cc3)co2)cc1` [Compound B10, 2-[1-[4-[4-[[2-[(E)-2-(4-methylphenyl)ethenyl]-1,3-oxazol-4-yl]methoxy]phenyl]butyl]-1H-imidazol-2-yl]-1-ethanol] showed a melting point of 108 to 109 °C. `Cc1cccc(/C=C/c2nc(COc3ccc(CCCCn4ccnc4CCO)cc3)co2)c1` [Compound B11, 2-[1-[4-[4-[[2-[(E)-2-(3-methylphenyl)ethenyl]-1,3-oxazol-4-yl]methoxy]phenyl]butyl]-1H-imidazol-2-yl]-1-ethanol] gave a melting point of 109 to 111 °C. Molecule `Cc1ccccc1/C=C/c1nc(COc2ccc(CCCCn3ccnc3CCO)cc2)co1` [Compound B12, 2-[1-[4-[4-[[2-[(E)-2-(2-methylphenyl)ethenyl]-1,3-oxazol-4-yl]methoxy]phenyl]butyl]-1H-imidazol-2-yl]-1-ethanol] has a melting point of 91 to 93 °C. With `CCc1ccc(/C=C/c2nc(COc3ccc(CCCCn4ccnc4CCO)cc3)co2)cc1` [Compound B13, 2-[1-[4-[4-[[2-[(E)-2-(4-ethylphenyl)ethenyl]-1,3-oxazol-4-yl]methoxy]phenyl]butyl]-1H-imidazol-2-yl]-1-ethanol] the melting point was 94 to 95 °C. Work on `OCCc1nccn1CCCCc1ccc(OCc2coc(/C=C/c3ccc(F)cc3)n2)cc1` [Compound B14, 2-(1-{4-[4-({2-[(E)-2-(4-fluorophenyl)ethenyl]-1,3-oxazol-4-yl}methoxy)phenyl]butyl)-1H-imidazol-2-yl)-1-ethanol] yielded a melting point of 130 to 132 °C. With `OCCc1nccn1CCCCc1ccc(OCc2coc(/C=C/c3ccc(Cl)cc3)n2)cc1` [Compound B15, 2-[1-[4-[4-[[2-[(E)-2-(4-chlorophenyl)ethenyl]-1,3-oxazol-4-yl]methoxy]phenyl]butyl]-1H-imidazol-2-yl]-1-ethanol] the melting point was 127 to 128 °C. For `OCCc1nccn1CCCCc1ccc(OCc2coc(/C=C/c3ccc(Br)cc3)n2)cc1` [Compound B16, 2-[1-[4-[4-[[2-[(E)-2-(4-bromophenyl)ethenyl]-1,3-oxazol-4-yl]methoxy]phenyl]butyl]-1H-imidazol-2-yl]-1-ethanol], the melting point was 149 to 150 °C. With `OCCc1nccn1CCCCc1ccc(OCc2coc(/C=C/c3ccc(F)cc3F)n2)cc1` [Compound B19, 2-[1-[4-[4-[[2-[(E)-2-(2,4-difluorophenyl)ethenyl]-1,3-oxazol-4-yl]methoxy]phenyl]butyl]-1H-imidazol-2-yl]-1-ethanol] the melting point was 93 to 95 °C. `OCCc1nccn1CCCc1ccc(OCc2coc(/C=C/c3ccc(F)cc3F)n2)cc1` [Compound B20, 2-[1-[3-[4-[[2-[(E)-2-(2,4-difluorophenyl)ethenyl]-1,3-oxazol-4-yl]methoxy]phenyl]propyl]-1H-imidazol-2-yl]-1-ethanol] showed a melting point of 94 to 96 °C. In the case of `OCC(O)Cc1nccn1CCCCc1ccc(OCc2coc(/C=C/c3ccc(F)cc3)n2)cc1` (stereo not drawn) [Compound B23, 3-(1-{4-[4-({2-[(E)-2-(4-fluorophenyl)ethenyl]-1,3-oxazol-4-yl}methoxy)phenyl]butyl}-1H-imidazol-2-yl)-1,2-propanediol], the melting point is reported as 114 to 116 °C. `OCC(O)Cc1nccn1CCCCc1ccc(OCc2coc(/C=C/c3ccc(C(F)(F)F)cc3)n2)cc1` (stereo not drawn) [Compound B24, 3-[1-(4-(4-[(2-{(E)-2-[4-(trifluoromethyl)phenyl]ethenyl}-1,3-oxazol-4-yl)methoxy]phenyl]butyl)-1H-imidazol-2-yl]-1,2-propanediol] gave a melting point of 142 to 143 °C. With `OCC(O)Cc1nccn1CCCc1cccc(OCc2coc(/C=C/c3ccc(C(F)(F)F)cc3)n2)c1` (stereo not drawn) [Compound B25, 3-[1-(3-{3-[(2-{(E)-2-[4-(trifluoromethyl)phenyl]ethenyl}-1,3-oxazol-4-yl)methoxy]phenyl}propyl)-1H-imidazol-2-yl]-1,2-propanediol] the melting point was 102 to 104 °C. Molecule `OCC(O)Cc1nccn1CCCCc1ccc(OCc2coc(/C=C/c3ccc(F)cc3F)n2)cc1` (stereo not drawn) [Compound B26, 3-(1-{4-[4-({2-[(E)-2-(2,4-difluorophenyl)ethenyl]-1,3-oxazol-4-yl}methoxy)phenyl]butyl}-1H-imidazol-2-yl)-1,2-propanediol] has a melting point of 126 to 128 °C. For `OCC(O)Cc1nccn1CCCc1cccc(OCc2coc(/C=C/c3ccc(F)cc3F)n2)c1` (stereo not drawn) [Compound B27, 3-(1-{3-[3-({2-[(E)-2-(2,4-difluorophenyl)ethenyl]-1,3-oxazol-4-yl}methoxy)phenyl]propyl}-1H-imidazol-2-yl)-1,2-propanediol], the melting point was 92 to 94 °C. For `OCC(O)Cc1nccn1CCCCc1ccc(OCc2coc(/C=C/c3c(F)cccc3F)n2)cc1` (stereo not drawn) [Compound B28, 3-[1-[4-[4-[[2-[(E)-2-(2,6-difluorophenyl)ethenyl]-1,3-oxazol-4-yl]methoxy]phenyl]butyl]-1H-imidazol-2-yl]-1,2-propanediol], the melting point was 123 to 125 °C.

— patent publication US20040138160A1, “Preventive/therapeutic method for cancer” (priority 2001, published 2004)
